# Measured values published in ChEMBL document CHEMBL1152560, “Substituted 2-arylbenzothiazoles as kinase inhibitors: hit-to-lead optimization” (Bioorg Med Chem, 2009).
# Legend:
# [1] = target: Fibroblast growth factor receptor 3 (Homo sapiens) (UniProt P22607); experiment: Residual activity of FGFR3 at 1 uM by microplate scintillation counting
# [2] = target: T1, Muscle, skeletal receptor tyrosine-protein kinase (Homo sapiens) (UniProt O15146); experiment: Residual activity of MUSK at 1 uM by microplate scintillation counting
# T1 sequence (whole entry): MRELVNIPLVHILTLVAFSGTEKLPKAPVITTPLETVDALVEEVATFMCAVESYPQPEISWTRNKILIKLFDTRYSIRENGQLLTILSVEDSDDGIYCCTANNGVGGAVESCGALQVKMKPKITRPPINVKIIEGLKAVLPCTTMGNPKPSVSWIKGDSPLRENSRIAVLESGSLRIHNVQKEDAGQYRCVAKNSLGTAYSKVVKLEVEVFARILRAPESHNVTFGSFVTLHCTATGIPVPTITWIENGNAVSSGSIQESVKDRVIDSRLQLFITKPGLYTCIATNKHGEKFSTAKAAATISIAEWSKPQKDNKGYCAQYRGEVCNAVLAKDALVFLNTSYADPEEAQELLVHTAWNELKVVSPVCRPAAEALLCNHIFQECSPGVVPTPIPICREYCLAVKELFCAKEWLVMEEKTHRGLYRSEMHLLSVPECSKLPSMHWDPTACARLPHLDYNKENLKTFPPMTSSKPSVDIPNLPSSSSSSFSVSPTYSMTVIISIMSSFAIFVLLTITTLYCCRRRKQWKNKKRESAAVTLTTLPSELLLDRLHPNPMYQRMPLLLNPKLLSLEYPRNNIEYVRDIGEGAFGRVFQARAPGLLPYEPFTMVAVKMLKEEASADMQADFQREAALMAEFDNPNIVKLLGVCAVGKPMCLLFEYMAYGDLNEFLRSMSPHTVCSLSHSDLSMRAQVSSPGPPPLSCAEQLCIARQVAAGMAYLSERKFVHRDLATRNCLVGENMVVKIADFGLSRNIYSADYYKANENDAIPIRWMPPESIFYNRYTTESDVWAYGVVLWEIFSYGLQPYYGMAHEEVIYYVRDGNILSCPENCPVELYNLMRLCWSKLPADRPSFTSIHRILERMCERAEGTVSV
# [3] = target: PAS domain-containing serine/threonine-protein kinase (Homo sapiens) (UniProt Q96RG2); experiment: Residual activity of PASK at 1 uM by microplate scintillation counting
# Chain of PAS domain-containing serine/threonine-protein kinase (Homo sapiens) (Q96RG2 whole entry, the tested form may be a part): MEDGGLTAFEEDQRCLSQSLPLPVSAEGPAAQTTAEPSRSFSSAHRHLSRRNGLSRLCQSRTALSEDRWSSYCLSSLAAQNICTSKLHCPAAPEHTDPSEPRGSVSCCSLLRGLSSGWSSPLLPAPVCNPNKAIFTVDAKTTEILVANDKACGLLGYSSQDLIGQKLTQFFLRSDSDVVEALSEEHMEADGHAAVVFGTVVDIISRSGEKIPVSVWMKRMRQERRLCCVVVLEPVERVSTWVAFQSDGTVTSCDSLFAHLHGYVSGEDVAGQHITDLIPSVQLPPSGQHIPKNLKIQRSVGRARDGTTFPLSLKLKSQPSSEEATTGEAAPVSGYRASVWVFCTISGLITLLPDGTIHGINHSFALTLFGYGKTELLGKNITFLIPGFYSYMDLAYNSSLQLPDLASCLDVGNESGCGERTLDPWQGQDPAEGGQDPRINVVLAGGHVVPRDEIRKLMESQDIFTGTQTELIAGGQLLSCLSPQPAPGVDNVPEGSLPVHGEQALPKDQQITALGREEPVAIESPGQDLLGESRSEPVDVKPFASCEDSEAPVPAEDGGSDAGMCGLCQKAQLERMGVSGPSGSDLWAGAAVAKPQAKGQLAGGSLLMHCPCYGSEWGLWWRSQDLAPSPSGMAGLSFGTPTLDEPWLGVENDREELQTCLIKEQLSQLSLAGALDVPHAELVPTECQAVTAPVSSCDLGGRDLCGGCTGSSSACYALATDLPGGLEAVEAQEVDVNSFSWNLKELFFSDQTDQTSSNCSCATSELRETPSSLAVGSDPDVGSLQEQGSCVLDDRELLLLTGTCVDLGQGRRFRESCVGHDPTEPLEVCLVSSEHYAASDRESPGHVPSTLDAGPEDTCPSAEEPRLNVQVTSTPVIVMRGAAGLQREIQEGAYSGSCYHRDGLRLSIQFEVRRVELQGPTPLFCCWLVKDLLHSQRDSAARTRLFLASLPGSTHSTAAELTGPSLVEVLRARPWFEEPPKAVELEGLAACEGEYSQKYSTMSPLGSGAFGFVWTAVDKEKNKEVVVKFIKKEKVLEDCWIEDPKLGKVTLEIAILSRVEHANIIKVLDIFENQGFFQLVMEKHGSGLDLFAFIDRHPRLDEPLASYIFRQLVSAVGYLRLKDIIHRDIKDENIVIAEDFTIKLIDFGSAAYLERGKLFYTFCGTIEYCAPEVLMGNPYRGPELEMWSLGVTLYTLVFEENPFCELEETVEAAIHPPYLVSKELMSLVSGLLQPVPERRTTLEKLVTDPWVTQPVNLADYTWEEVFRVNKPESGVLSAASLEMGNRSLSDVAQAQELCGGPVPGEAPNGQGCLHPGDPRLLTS
# [4] = target: CDK8/Cyclin C (Homo sapiens) (UniProt P49336+P24863); experiment: Residual activity of CDK8/Cyclin C at 10 uM by microplate scintillation counting; assay type: protein-complex assay
# [5] = target: Serine/threonine-protein kinase MARK1 (Homo sapiens) (UniProt Q9P0L2); experiment: Residual activity of MARK1 at 10 uM by microplate scintillation counting
# Chain of Serine/threonine-protein kinase MARK1 (Homo sapiens) (Q9P0L2 whole entry, looked up): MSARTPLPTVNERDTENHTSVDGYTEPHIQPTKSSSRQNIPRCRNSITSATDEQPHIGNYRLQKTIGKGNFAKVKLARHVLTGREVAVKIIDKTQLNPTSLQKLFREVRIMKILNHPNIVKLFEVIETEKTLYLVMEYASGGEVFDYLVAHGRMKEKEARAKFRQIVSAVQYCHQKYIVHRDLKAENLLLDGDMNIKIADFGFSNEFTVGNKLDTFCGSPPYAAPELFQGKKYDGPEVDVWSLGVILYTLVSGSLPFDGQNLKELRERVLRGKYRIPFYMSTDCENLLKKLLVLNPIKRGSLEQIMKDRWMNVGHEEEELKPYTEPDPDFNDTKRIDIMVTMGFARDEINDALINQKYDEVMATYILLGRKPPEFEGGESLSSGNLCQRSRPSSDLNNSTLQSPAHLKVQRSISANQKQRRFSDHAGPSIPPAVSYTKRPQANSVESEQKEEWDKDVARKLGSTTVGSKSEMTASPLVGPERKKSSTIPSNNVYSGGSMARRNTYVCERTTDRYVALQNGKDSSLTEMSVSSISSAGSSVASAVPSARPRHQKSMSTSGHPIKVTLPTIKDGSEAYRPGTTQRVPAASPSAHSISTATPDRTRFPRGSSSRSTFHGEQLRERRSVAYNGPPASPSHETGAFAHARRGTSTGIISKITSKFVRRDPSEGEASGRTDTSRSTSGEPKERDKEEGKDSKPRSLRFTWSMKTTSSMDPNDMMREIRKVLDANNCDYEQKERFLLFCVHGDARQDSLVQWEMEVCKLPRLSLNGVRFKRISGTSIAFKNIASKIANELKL
# [6] = target: Receptor-interacting serine/threonine-protein kinase 2 (Homo sapiens) (UniProt O43353); experiment: Residual activity of RIPK2 at 10 uM by microplate scintillation counting
# Chain of Receptor-interacting serine/threonine-protein kinase 2 (Homo sapiens) (O43353 whole entry): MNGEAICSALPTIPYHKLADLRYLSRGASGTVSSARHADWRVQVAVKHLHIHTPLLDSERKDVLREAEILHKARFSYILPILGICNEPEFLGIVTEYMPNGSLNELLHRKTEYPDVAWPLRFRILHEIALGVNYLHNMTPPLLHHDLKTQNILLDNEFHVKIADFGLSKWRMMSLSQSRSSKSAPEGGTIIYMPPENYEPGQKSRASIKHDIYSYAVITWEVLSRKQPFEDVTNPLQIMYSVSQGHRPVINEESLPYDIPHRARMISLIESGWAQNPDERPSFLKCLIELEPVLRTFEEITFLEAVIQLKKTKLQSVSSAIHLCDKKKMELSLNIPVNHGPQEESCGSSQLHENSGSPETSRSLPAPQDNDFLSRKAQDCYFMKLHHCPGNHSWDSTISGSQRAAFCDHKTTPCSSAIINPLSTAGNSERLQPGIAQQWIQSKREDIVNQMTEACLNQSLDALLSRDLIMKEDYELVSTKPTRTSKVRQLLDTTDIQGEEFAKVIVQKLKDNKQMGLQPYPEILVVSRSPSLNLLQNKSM
# [7] = target: T2, cGMP-dependent protein kinase 2 (Homo sapiens) (UniProt Q13237); experiment: Residual activity of PRKG2 at 0.1 uM by microplate scintillation counting
# T2 sequence (whole entry): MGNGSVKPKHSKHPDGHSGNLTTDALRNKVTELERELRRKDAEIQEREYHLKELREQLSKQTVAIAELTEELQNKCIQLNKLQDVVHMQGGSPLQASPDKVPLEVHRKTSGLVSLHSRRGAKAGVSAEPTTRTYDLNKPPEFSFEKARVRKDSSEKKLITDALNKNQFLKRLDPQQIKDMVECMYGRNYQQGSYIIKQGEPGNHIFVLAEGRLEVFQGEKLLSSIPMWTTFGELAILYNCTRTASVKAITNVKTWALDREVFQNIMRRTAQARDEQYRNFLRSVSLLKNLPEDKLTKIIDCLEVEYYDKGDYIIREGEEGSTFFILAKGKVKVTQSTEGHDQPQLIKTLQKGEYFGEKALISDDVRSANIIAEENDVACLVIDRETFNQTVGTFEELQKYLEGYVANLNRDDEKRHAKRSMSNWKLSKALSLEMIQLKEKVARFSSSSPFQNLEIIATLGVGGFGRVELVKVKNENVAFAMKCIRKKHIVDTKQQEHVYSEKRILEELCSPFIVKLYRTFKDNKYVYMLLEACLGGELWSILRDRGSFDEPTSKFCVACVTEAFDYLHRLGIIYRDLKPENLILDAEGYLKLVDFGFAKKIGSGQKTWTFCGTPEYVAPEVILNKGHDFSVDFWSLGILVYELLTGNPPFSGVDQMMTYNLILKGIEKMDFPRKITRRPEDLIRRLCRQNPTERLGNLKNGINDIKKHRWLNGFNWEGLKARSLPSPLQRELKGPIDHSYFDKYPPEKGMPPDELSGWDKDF
# [8] = target: Serine/threonine-protein kinase SIK2 (Homo sapiens) (UniProt Q9H0K1); experiment: Residual activity of SNF1LK2 at 0.1 uM by microplate scintillation counting
# Chain of Serine/threonine-protein kinase SIK2 (Homo sapiens) (Q9H0K1 whole entry, looked up): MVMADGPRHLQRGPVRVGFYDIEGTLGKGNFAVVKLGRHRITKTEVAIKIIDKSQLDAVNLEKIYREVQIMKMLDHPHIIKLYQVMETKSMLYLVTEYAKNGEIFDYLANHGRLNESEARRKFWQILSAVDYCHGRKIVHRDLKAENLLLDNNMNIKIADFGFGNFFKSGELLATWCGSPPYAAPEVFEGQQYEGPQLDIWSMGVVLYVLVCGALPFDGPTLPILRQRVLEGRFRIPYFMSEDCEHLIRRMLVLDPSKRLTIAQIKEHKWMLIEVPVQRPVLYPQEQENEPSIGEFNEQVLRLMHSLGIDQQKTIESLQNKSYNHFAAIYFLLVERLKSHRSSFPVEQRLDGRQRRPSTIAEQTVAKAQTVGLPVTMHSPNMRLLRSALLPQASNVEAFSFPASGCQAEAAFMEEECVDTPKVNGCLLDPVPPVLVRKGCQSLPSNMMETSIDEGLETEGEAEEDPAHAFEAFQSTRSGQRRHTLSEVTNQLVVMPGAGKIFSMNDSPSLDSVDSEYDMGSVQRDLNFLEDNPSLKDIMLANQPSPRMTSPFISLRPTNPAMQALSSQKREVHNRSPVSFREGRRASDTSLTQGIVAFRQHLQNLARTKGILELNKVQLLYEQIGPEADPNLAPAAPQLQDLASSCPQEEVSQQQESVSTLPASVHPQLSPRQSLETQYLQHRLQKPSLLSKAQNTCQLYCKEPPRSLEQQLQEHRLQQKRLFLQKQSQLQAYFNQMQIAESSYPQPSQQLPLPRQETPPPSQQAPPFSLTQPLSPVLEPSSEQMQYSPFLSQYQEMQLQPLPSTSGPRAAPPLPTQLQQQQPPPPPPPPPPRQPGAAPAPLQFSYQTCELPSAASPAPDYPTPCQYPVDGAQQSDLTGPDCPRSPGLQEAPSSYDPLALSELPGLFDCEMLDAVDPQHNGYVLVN
# [9] = target: T3, Tyrosine-protein kinase receptor TYRO3 (Homo sapiens) (UniProt Q06418); experiment: Residual activity of TYRO3 at 10 uM by microplate scintillation counting
# T3 sequence (whole entry): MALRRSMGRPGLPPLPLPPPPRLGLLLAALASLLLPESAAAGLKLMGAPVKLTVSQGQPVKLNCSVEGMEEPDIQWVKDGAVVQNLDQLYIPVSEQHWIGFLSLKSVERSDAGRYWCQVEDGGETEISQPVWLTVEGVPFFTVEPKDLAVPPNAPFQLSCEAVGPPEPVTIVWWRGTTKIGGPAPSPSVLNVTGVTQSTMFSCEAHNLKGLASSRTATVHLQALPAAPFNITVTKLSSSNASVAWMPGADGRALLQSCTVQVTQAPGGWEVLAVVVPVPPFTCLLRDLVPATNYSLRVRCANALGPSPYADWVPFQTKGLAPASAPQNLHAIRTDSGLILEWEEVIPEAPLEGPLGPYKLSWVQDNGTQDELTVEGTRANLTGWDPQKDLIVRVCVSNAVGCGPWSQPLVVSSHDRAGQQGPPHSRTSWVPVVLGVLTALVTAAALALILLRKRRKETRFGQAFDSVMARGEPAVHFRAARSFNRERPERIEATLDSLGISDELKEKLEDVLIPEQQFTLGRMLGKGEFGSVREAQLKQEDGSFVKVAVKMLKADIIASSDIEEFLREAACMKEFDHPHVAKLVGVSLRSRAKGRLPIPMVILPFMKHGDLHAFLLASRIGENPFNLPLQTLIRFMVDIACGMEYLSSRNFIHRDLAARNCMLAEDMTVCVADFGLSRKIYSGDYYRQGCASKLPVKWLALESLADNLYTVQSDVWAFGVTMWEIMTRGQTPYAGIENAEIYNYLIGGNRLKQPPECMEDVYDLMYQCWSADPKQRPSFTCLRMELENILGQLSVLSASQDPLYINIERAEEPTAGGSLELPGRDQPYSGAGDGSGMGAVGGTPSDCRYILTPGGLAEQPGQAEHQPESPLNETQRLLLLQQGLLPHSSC
# Angiopoietin-1 receptor = Angiopoietin-1 receptor (Homo sapiens, UniProt Q02763); experiment: Residual activity of TIE2 at 10 uM by microplate scintillation counting
# Chain of Fibroblast growth factor receptor 3 (Homo sapiens) (P22607 23-806 limits assumed): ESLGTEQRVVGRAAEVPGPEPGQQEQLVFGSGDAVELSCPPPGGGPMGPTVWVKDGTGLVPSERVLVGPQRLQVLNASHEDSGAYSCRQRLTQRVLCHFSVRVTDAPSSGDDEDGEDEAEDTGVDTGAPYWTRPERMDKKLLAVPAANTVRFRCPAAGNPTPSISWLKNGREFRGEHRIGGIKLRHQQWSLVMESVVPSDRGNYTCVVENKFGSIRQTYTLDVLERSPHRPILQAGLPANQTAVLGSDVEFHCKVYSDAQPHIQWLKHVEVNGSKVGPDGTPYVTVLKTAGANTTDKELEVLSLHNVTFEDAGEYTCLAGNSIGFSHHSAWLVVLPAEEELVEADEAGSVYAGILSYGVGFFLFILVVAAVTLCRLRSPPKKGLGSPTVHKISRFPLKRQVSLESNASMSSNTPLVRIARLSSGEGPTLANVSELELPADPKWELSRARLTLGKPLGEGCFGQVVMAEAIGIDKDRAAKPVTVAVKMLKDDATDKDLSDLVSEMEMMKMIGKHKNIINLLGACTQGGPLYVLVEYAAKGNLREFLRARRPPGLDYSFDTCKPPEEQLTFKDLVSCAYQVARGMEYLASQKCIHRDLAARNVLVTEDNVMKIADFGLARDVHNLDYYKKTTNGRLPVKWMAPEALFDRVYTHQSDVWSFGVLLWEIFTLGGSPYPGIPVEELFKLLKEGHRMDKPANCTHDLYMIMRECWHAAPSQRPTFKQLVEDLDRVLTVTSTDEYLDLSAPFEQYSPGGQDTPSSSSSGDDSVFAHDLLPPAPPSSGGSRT
residual activity [1] [%],residual activity [2] [%],residual activity [3] [%],residual activity [4] [%],residual activity [5] [%],residual activity [6] [%],residual activity [7] [%],residual activity [8] [%],residual activity [9] [%],residual activity (Angiopoietin-1 receptor) [%],Compound
98,94,94,82,112,4,84,80,120,4,COc1cc2c(Oc3ccc(-c4nc5ccccc5s4)cc3)ncnc2cc1OCCCN1CCCC1
90,89,88,88,124,2,87,93,84,3,COc1cc2c(Oc3ccc(-c4nc5ccccc5s4)cc3)ncnc2cc1OCCCN1CCN(C)CC1
88,88,83,75,112,1,86,88,17,4,COc1cc2c(Oc3ccc(-c4nc5ccccc5s4)cc3F)ncnc2cc1OCCCN1CCN(C)CC1
